The source of these data is article PMC10002517, “Inhibition of Transglutaminase 2 as a Therapeutic Strategy in Celiac Disease—In Vitro Studies in Intestinal Cells and Duodenal Biopsies” (International Journal of Molecular Sciences, 2023).

Molecules are shown by their SMILES.

In series [1] the test system is transepithelial passage of P31-43 in Caco-2 cells. Put plainly: Transepithelial transport of promofluor-conjugated gliadin peptide P31-43 across Caco-2 monolayers (fluorometry). The class given is cell-based, human. The note with it: 1 µM and 100 µM inhibitor; 3 h. On the procedure:
Transepithelial transport of immunogenic and toxic gliadin peptides were examined in Caco-2 cells 7–14 days after confluency. Caco-2 cells were seeded on semi-permeable transwell supports (ThinCert, culture surface: 33.6 mm², pore size: 0.4 µm) in 24-well plates (Greiner Bio One, Pleidelsheim, Germany). Prior to the transport experiments, the integrity of the cell monolayer was tested by measuring the transepithelial electric resistance (TEER) using a volt-ohm meter (Millipore, Schwalbach, Germany). Monolayers with insufficient TEER (<350 Ω/cm^2) were omitted. The synthesis and purification of promofluor-conjugated gliadin peptides were described elsewhere. Cells were either incubated with the immunogenic peptide P56-88 ([…]) or the toxic gliadin peptide P31-43 (LGQQQPFPPQQPY), 7 µg/mL each, in Hank’s balanced salt solution (HBSS) for 3 h. To investigate the role of TG2 on the transport of gliadin peptides, incubation was performed in the presence of ERW1041 and PX-12. After 3 h, basal and apical supernatants were collected, and the relative fluorescence of the basal compartment was quantified using a FLUOstar Optima (BMG Labtech) microplate reader. Background subtraction was performed against conditions, where no labeled peptides were used. Normalization was performed against conditions, where no inhibitors were used.
For orientation: Passage across Caco-2 layers is used to estimate intestinal permeability.

A further series relates to tumor cell lines. The following applies: 10 µM; cited from earlier work. On the procedure: To further examine the applicability of both substances, we analyzed their effect on the viability of Caco-2 cells. […] In those studies, however, viability was determined in tumor cell lines and not in differentiated int ...
The conditions of series [2]: given intravenously, clinical trials; rapid binding to plasma components; cited from earlier work. From the text: This might be explained by rapid degradation or reduction of PX-12 by living cells. This is in line with observations in clinical trials, where PX-12 plasma levels were very low when given intravenously due to rapid binding to plasma components.

In the case of `O=C(NC[C@@H]1CC(Br)=NO1)[C@@H]1CCCN1C(=O)OCc1cnc2ccccc2c1` [ERW1041], in series [1], the “transport of P31-43” value was “remained unaffected”.

On to `CCC(C)SSc1ncc[nH]1` (stereo not drawn) [PX-12, 2-[(1-methylpropyl)dithio]-1H-imidazole], for which, in the series with tumor cell lines, the cytotoxicity result is “cytotoxic effects”. Further, the plasma levels entry in series [2] is “very low”.
